For experiment [1], the target named is T1, Muscarinic acetylcholine receptor M1 (Homo sapiens) (UniProt P11229).
T1 sequence (whole entry): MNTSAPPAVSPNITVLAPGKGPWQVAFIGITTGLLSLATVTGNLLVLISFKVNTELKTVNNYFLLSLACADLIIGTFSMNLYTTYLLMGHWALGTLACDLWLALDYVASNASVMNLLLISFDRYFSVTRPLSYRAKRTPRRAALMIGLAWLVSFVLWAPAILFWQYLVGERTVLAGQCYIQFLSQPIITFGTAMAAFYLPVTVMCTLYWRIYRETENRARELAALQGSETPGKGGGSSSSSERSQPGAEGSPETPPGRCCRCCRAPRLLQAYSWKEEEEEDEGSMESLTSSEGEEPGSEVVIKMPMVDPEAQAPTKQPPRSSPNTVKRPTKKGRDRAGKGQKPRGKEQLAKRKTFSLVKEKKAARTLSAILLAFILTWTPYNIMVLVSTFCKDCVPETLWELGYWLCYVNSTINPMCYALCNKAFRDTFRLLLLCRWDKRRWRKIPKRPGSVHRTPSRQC
Nature of the experiment: Selectivity interaction (Panel of non-epigenetic targets (kinases, GPCRs, ion channels, and transporters, Eurofins) ) EUB0000271b CHRM1. The note with it: at 1 µM.

The target of experiment [2] is T2, 3-phosphoinositide-dependent protein kinase 1 (Homo sapiens) (UniProt O15530).
T2 sequence (whole entry): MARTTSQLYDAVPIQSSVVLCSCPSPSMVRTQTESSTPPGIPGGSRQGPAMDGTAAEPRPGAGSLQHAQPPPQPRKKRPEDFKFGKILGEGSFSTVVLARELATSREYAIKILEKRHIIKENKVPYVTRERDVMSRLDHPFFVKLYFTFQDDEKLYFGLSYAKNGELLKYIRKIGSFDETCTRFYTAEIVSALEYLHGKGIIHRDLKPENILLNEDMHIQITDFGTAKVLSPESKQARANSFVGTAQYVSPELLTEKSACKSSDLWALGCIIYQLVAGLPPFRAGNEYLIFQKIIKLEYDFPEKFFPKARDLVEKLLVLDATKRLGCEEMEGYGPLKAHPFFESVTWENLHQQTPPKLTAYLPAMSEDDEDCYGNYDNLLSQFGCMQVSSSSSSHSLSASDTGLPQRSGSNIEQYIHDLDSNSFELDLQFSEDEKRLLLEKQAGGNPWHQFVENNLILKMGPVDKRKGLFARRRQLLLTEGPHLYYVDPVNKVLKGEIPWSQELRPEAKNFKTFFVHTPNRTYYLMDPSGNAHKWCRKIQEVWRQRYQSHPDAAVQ
Nature of the experiment: Selectivity interaction (KinomeScan (DiscoverX)) EUB0000655a PDPK1. Particulars: at 10 µM.

The target of experiment [3] is ALK tyrosine kinase receptor (Homo sapiens, UniProt Q9UM73). Nature of the experiment: Selectivity interaction (KinomeScan (DiscoverX)) EUB0000655a ALK. Particulars: at 10 µM.
The target in experiment [4] is T3, Serine/threonine-protein kinase Nek1 (Homo sapiens) (UniProt Q96PY6).
T3 sequence (whole entry): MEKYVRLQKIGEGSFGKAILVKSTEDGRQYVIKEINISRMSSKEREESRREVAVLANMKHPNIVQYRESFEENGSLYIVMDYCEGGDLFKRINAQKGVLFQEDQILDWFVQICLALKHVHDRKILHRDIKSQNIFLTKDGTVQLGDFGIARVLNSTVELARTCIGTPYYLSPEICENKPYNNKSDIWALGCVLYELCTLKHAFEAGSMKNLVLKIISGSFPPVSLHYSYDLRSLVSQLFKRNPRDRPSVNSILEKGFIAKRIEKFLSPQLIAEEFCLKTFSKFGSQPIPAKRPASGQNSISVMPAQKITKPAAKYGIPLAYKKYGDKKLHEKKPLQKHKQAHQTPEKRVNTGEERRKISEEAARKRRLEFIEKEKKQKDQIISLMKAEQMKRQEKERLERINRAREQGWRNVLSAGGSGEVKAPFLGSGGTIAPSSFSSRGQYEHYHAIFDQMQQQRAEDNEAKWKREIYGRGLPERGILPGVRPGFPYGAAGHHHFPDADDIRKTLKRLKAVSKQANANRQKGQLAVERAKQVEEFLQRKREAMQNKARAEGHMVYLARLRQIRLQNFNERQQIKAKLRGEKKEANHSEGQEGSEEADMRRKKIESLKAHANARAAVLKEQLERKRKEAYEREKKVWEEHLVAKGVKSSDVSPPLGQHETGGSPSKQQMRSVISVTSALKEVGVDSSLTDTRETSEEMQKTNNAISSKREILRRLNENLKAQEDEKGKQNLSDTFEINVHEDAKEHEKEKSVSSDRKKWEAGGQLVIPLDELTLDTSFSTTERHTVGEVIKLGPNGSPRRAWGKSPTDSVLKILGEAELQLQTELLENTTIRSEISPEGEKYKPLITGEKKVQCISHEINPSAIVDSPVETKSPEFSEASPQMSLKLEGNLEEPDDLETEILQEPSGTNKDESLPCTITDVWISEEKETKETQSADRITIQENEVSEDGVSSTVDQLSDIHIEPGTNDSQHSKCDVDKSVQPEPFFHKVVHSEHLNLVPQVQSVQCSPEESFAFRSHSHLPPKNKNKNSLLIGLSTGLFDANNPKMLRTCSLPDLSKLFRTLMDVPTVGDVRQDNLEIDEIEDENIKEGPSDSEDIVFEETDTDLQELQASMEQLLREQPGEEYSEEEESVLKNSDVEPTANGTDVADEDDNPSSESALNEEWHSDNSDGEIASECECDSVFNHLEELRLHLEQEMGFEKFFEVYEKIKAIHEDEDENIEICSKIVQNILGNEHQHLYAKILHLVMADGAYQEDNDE
Nature of the experiment: Selectivity interaction (ProQinase) EUB0000171b NEK1.

Experiment [5] concerns the target Dual specificity testis-specific protein kinase 1 (Homo sapiens) (UniProt Q15569). Nature of the experiment: Selectivity interaction (KinomeScan (DiscoverX)) EUB0000045b TESK1.
In experiment [6] the target is Fibroblast growth factor receptor 1 (Homo sapiens, UniProt P11362). Nature of the experiment: Selectivity interaction (Upstate Kinase Profiler service (Millipore)) EUB0000056c FGFR1. Particulars: at 1 µM.
Chain of Fibroblast growth factor receptor 1 (P11362 22-822 limits assumed): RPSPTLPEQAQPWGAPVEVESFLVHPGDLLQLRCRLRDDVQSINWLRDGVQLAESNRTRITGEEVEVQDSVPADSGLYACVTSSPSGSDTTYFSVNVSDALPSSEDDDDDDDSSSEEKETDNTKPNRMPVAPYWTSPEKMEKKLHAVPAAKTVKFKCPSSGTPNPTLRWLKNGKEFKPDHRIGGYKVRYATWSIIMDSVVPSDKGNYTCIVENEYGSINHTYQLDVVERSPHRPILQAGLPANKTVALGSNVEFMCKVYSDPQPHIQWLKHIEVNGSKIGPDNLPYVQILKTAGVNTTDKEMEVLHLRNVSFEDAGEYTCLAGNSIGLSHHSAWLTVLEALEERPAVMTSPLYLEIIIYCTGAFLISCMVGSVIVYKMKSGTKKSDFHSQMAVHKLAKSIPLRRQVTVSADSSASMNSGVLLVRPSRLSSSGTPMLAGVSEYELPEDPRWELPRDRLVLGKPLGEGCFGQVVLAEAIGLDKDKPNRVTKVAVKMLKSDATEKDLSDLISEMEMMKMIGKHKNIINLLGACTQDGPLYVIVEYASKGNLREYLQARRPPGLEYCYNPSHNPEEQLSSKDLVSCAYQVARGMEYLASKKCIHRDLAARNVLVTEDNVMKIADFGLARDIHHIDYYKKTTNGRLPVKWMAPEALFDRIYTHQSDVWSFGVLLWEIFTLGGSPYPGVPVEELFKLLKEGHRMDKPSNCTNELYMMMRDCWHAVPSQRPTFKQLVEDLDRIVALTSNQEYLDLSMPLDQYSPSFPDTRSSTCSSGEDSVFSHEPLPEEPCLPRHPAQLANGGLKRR

Chain of Dual specificity testis-specific protein kinase 1 (Homo sapiens) (Q15569 whole entry, looked up): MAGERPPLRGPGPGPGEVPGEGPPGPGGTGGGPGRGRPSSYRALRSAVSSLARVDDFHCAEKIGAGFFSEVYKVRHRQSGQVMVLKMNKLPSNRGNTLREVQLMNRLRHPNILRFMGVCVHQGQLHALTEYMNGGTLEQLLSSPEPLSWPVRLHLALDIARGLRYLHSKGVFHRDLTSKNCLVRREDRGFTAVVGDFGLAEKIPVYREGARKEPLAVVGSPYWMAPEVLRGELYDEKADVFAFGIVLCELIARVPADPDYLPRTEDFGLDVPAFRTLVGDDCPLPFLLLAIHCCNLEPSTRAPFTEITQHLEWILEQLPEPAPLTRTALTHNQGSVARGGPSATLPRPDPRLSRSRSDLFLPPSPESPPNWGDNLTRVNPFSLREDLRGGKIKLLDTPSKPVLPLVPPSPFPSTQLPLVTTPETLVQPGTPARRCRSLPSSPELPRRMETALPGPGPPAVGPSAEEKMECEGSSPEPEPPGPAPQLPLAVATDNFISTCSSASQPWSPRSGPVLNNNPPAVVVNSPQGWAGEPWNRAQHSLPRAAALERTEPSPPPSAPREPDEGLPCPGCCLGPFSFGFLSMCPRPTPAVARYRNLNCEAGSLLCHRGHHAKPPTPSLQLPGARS
Chain of ALK tyrosine kinase receptor (Q9UM73 19-1620 limits assumed): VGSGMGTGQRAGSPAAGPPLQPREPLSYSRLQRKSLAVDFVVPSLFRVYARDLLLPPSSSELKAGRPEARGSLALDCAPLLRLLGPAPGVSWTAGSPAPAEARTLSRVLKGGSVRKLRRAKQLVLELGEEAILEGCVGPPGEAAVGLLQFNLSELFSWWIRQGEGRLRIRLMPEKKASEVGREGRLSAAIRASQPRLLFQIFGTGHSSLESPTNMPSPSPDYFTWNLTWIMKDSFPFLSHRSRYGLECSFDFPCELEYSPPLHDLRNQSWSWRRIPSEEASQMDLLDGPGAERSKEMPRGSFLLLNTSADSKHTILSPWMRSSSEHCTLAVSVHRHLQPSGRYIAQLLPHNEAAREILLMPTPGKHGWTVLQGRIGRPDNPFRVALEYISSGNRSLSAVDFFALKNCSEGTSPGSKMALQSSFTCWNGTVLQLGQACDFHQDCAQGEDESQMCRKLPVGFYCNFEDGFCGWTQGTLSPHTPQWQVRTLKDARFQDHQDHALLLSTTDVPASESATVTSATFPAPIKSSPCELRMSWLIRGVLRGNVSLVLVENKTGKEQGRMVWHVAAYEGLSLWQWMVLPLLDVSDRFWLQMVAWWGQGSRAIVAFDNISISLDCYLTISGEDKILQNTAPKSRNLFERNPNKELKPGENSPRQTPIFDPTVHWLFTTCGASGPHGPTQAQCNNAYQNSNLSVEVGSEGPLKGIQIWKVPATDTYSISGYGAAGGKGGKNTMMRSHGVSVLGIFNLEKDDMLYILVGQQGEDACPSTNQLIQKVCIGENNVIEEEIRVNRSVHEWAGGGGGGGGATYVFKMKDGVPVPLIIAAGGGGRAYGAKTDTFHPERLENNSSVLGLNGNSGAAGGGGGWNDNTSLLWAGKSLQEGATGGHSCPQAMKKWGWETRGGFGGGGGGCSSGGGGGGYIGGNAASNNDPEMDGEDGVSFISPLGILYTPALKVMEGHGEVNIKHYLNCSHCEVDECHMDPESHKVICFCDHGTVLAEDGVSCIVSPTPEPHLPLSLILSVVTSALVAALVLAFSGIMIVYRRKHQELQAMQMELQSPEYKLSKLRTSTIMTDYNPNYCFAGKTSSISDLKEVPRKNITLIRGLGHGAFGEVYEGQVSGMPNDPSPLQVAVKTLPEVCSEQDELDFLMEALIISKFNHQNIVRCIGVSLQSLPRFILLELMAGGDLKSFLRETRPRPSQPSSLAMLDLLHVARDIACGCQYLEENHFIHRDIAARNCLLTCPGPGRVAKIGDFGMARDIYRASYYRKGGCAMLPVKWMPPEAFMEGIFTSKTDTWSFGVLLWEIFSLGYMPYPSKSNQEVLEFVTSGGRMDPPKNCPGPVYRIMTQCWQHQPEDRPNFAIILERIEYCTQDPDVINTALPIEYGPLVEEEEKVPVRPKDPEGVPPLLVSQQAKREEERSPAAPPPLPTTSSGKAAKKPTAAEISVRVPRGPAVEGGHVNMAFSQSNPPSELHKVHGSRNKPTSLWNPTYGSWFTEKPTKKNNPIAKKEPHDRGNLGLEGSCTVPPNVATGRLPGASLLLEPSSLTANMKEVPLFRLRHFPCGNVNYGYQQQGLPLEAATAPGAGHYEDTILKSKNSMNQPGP

Regarding `Cc1cc(C)cc([C@@H]2c3cc(C)ccc3NC(=O)CN2C(=O)c2ccc(Br)s2)c1`, in experiment [1], the % of inhibition is -2%.

As for `CN(C)CCOc1ccc(-c2nc(-c3ccncc3)c(-c3ccc4c(c3)CC/C4=N\O)[nH]2)cc1`, the % of control in experiment [2] was 88%; in experiment [3] it was 45%. For the compound `C=CC(=O)Nc1cccc(C(=O)Nc2ccc(Nc3cc(-c4[nH]c(SC)nc4C)ccn3)cc2)c1`, the results for the % of control in experiment [4] (at 1 µM) and in experiment [4] (at 5 µM) were 80% and 64%, respectively.

With `C=CC(=O)Nc1cc(-n2c(=O)ccc3cnc4ccc(-c5ccc(NS(C)(=O)=O)cc5)cc4c32)ccc1C`, the % of control was 94% in experiment [5] (at 1 µM) and 98% in experiment [5] (at 10 µM). Take `Cc1ccc(-c2ccc3c(ccc4sc5c(c43)NC[C@@H](C)NC5=O)n2)cn1`: in experiment [6], the % of inhibition was found to be 3%.

Source of the values: ChEMBL document CHEMBL5465560, “Selectivity Literature for EUbOPEN Chemogenomic Library” (2024).
